This is an account of results in ChEMBL document CHEMBL1201862, “PubChem BioAssay data set” (2004).

Structures are written as SMILES.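 All cell lines were grown in 96-well plates and treated with compound for 48 hours. GI50 marks 50% less growth.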 Activity calls are given as the source filed them. Cut-off read from the data, not from the text of the source: active = GI50 up to about 1.1 µM and inactive = higher.

Test systems include HT-29; HCT-15; SF-268; SW-620; SF-295; RXF 393; SK-MEL-2; M14; HL-60; MDA-MB-231; IGROV-1; NCI/ADR-RES; COLO 205; KM12; Malme-3M; CCRF-CEM; MOLT-4; CAKI-1; SK-MEL-5; MDA-N.
Assay in all cases: NCI tumour cell line growth inhibition, 48 h

On to `c1ccc(CSc2nc(N3CCCCC3)c3cn[nH]c3n2)cc1`, for which the GI50 in the assay with HT-29 was 31.8 µM (inactive); in the assay with HCT-15 it was 33.2 µM; with SF-268, 23.8 µM (inactive); in the assay with SW-620 it was 19.9 µM (inactive); in the assay on SF-295 it was 24.9 µM (inactive); in the assay with RXF 393, 16.1 µM (inactive). Besides, the GI50 in the assay with SK-MEL-2 was 16.2 µM (inactive); with M14 it was 19.8 µM (inactive); in the assay on HL-60 it was 13.3 µM (inactive); with MDA-MB-231 it was 16.3 µM (inactive); in the assay with IGROV-1, 17.5 µM (inactive); with NCI/ADR-RES, 61.2 µM (inactive). The GI50 is 23 µM (inactive) in the assay on COLO 205; 14.7 µM (inactive) with KM12; 20.4 µM (inactive) in the assay with Malme-3M; 44 µM (inactive) in the assay on CCRF-CEM; 49.1 µM (inactive) in the assay on MOLT-4; 29.6 µM (inactive) in the assay on CAKI-1. Also, the GI50 in the assay with SK-MEL-5 is 16.5 µM (inactive).
Take `COc1cc(Br)c(OC)c2c(OC)cc(C)cc12`: the GI50 in the assay with HT-29 was 67.8 µM (inactive); with HCT-15 it was over 100 µM; in the assay on SF-268 it was > 100 µM (inactive); in the assay with SW-620 it was > 100 µM (inactive); in the assay with SF-295, > 100 µM (inactive); in the assay on RXF 393 it was 50.1 µM (inactive). Further, the GI50 in the assay on SK-MEL-2 was > 100 µM (inactive); with M14 it was 64.7 µM (inactive); with HL-60, 14.7 µM (inactive); with MDA-MB-231 it was 89.9 µM (inactive); with IGROV-1, > 100 µM (inactive); with NCI/ADR-RES it was > 100 µM (inactive). In addition, the GI50 is > 100 µM (inactive) in the assay on COLO 205; > 100 µM (inactive) with KM12; > 100 µM (inactive) in the assay on Malme-3M; 42.5 µM (inactive) with CCRF-CEM; 20 µM (inactive) in the assay with MOLT-4.
As to `CN(C)C(=O)Oc1ccc(C(=S)Nc2ccccc2)cc1`, the GI50 with HT-29 was 51.2 µM (inactive); in the assay on HCT-15, 97.5 µM; with SF-268, > 100 µM (inactive); in the assay with SW-620, > 100 µM (inactive); in the assay with MDA-N it was 37.4 µM (inactive); in the assay on SF-295, 87.7 µM (inactive). The GI50 in the assay on SK-MEL-2 was > 100 µM (inactive); in the assay with M14, 41.2 µM (inactive); in the assay with HL-60 it was 21.6 µM (inactive); in the assay with IGROV-1, 34 µM (inactive); with NCI/ADR-RES it was 26.4 µM (inactive); in the assay with COLO 205 it was 65.2 µM (inactive). In addition, the GI50 is 49.7 µM (inactive) with KM12; 89.3 µM (inactive) in the assay on Malme-3M; 26.6 µM (inactive) in the assay on CCRF-CEM; 18.3 µM (inactive) with MOLT-4; > 100 µM (inactive) in the assay on CAKI-1; 24 µM (inactive) in the assay on SK-MEL-5.
As for `O=C(CNc1cccc([N+](=O)[O-])c1)Nn1c(-c2ccccc2)nc2ccccc2c1=O`, the GI50 in the assay on HT-29 was 0.312 µM (active); in the assay with HCT-15, 0.419 µM; in the assay on SF-268, 1.69 µM (inactive); with SW-620, 0.33 µM (active); with SF-295, 1.58 µM (inactive); in the assay on RXF 393, 0.37 µM (active). The GI50 was 0.422 µM (active) in the assay with HL-60; 0.776 µM (active) in the assay on MDA-MB-231; 0.201 µM (active) in the assay on IGROV-1; 0.282 µM (active) in the assay on NCI/ADR-RES; 1.43 µM (inactive) in the assay with COLO 205; 1.18 µM (inactive) in the assay with KM12. Moreover, the GI50 with Malme-3M is 0.973 µM (active); with CCRF-CEM, 0.316 µM (active); with MOLT-4, 0.246 µM (active); with SK-MEL-5, 1.02 µM (active).
In the case of `O=C([O-])C1([n+]2c(-c3ccccc3)cc(-c3ccccc3)cc2-c2ccccc2)CC1`, the GI50 in the assay on HT-29 was 48.8 µM (inactive); with HCT-15, over 100 µM; in the assay on SF-268, 42.3 µM (inactive); in the assay on SW-620, > 100 µM (inactive); in the assay on MDA-N, 53.8 µM (inactive); with SF-295 it was > 100 µM (inactive). Besides, the GI50 with RXF 393 was > 100 µM (inactive); with M14, 43.6 µM (inactive); in the assay on HL-60 it was 21.8 µM (inactive); in the assay with IGROV-1 it was 32.8 µM (inactive); with NCI/ADR-RES, > 100 µM (inactive); in the assay with Malme-3M, 34.5 µM (inactive). The results for the GI50 in the assay with CCRF-CEM, in the assay with MOLT-4 and with SK-MEL-5 were 48.2 µM (inactive), 65.6 µM (inactive) and 19.6 µM (inactive), respectively.
